In patent publication US20080241919A1, “Defined media for pluripotent stem cell culture” (The Burnham Institute of Medical Research, priority 2003, published 2008):

Tests used:
[1] = test system: human embryonic stem cells (hESCs); assay: bFGF dose-response, maintenance of undifferentiated hESCs under feeder-free condition on laminin/collagen-coated plates; format: cell-based
Experimental: (c) bFGF dose-response assays—assessing maintenance of the undifferentiated state.
To discover the minimal essential conditions needed to support the long-term growth of undifferentiated hESCs, morphological analysis was used to assess the developmental stage of hESCs at different times. For these analyses hESCs were grown in a 6- or 12-well plate to maturation (day 6 or 7 after seeding) before being fixed and visualized under a phase contrast microscope. Cellular immunofluorescence was also employed to assess the state of differentiation of hESCs. To perform these studies, hESCs were grown to maturation (day 6 or 7 after seeding) in a 12- or 24-well plate with a round cover slide in the bottom of each well. The cells were then fixed with 4% paraformaldehyde and blocked in PBS buffer containing 0.2% Triton X-100 and 2% BSA. Next, the cells were incubated with a primary antibody (Oct-4, SSEA-1, SSEA-3, SSEA-4, Tra-1-60, Tra-1-81, alkaline phosphatase, Myc, Map-2, Nkx2.5, bFGF (Santa Cruz Biotechnology, Inc.; Santa Cruz, Calif., world wide web: scbt.com) nestin, tyrosine hydroxylase (Chemicon International, Temecula, Calif., world wide web: chemicon.com), beta-tubulin (Sigma), p300, Tip60, or acetylated H4 (K5, 8, 12, 16) (Upstate Biotechnology, Lake Placid, N.Y., world wide web: upstate.com) in wash buffer (0.1% Triton X-100 in PBS) at 4° C. overnight, and then with secondary antibody (Molecular Probe; Eugene, Oreg., world wide web: probes.com) in wash buffer at room temperature for 45 minutes. After further staining with DAPI, cells were mounted onto a microscope slide and visualized under an immunofluorescence and deconvolution microscope. The state of differentiation of hESC was further assessed by generating (via lentiviral-mediated transduction) hESCs carrying a reporter gene (enhanced green fluorescence protein (EGFP)) under control of the Oct-4 promoter. Using these transfected hESCs (carrying Oct-4 driven EGFP), the undifferentiated state of hESCs can be visualized by green fluorescence (indicating Oct-4 expression).
The mechanism by which MEF-conditioned media exerts these effects is unknown, and it could involve the presence of growth factors, removal of toxic factors from the medium, or both. Based on the discovery that bFGF (at relatively high concentrations) promotes undifferentiated growth of hESCs on HFFs, it was decided to test whether bFGF promotes undifferentiated growth of hESCs on matrix proteins in the absence of feeder cells. Gelatin pre-coated plates were incubated with a commercially-available combination of laminin and collagen known as Matrigel (Growth factor reduced, Becton Dickinson) [diluted 1:30 in cold DMEM/F-12] at 4° C. overnight. The growth of hESCs on laminin/collagen-coated plates in the defined hESC media containing 20 ng/ml bFGF was examined. […]
To further assess the effect of bFGF on hESC undifferentiated growth, short-term proliferation assays of hESCs maintained under the feeder-free condition in the defined hESC media containing 0, 4, 10, 20, 30, or 50 ng/ml bFGF were performed. […] To further affirm the role of bFGF on hESC undifferentiated growth, hESCs carrying a reporter gene (enhanced green fluorescence protein [EGFP]) under control of Oct-4 promoter were generated (via lentiviral-mediated transduction).

[2] = test system: human embryonic stem cells (hESCs); assay: Undifferentiated growth of hESCs on human foreskin fibroblast (HFF) feeder layer; format: cell-based
Experimental: Next, in order to establish a culture system that was free of non-human animal products, the human foreskin fibroblast (HFF) cell line Hs27 was used as a feeder layer. The human foreskin fibroblast (HFF) cell line, Hs27 (ATCC; Manassas, Va.; www.atcc.org) was expanded to create a master bank of frozen cells. The HFFs were plated in gelatin pre-coated 60 mm plates or 6-well plates at a density of 1.7×10^4/cm^2 and inactivated by irradiating at 50 Gy using a ^137Cs gamma-irradiator before being used as feeder cells. Undifferentiated hESCs, although originally maintained on MEFs, were transferred to plates of HFFs that had been mitotically inactivated by gamma irradiation. In the first attempts to transfer the hESCs to the human feeder layers, far more differentiated cells compared to those grown on MEFs were observed. When dealing with hESCs, the undifferentiated state was assessed by three criteria: (a) distinctive and defining stage-specific morphology and size; (b) the expression of immunomarkers associated with pluripotency; and (c) the absence of immunomarkers associated with lineage commitment.
In this media, less than 80% undifferentiated hESC colonies were observed on HFF feeders on every passage.

p38 MAPK = p38 MAPK phosphorylation in hESCs (Western blot, immunocytochemistry); format: cell-based, human
Description: (e) bFGF is essential for maintaining hESCs in a healthy undifferentiated state, in part through MAPK signaling […]. In media lacking bFGF, hESC colonies maintained on Matrigel-coated plates have a completely differentiated morphology upon the first passage [A]. To examine the signaling pathways that might be mediated by bFGF, the phosphorylation level of p38 MAPK in undifferentiated (in the presence of bFGF [+bFGF]) and differentiated (in the absence of bFGF [−bFGF]) hESCs was examined. […] White arrows delineate the edge of an hESC colony.
To help understand the molecular mechanisms underlying bFGF's role in maintaining undifferentiated growth of hESCs, the mitogen-activated protein kinase (MAPK) signaling pathway was examined.

[3] = test system: human embryonic stem cells (hESCs); assay: Short-term proliferation assay (growth rate) of hESCs in defined hESC media; format: cell-based; details: feeder-free
Experimental: (b) Short-term proliferation assays—assessing cell number. The growth rate of hESCs maintained under the feeder-free condition in the defined hESC media containing 0, 4, 10, 20, 30, or 50 ng/ml bFGF were determined and compared to that of hESCs maintained on laminin/collagen-coated plates in the MEF-conditioned media (MEF-CM) containing 10 ng/ml bFGF (see, for example, Xu, C., et al., Nat. Biotechnol. 19, 971-974 (2001)).
To further assess the effect of bFGF on hESC undifferentiated growth, short-term proliferation assays of hESCs maintained under the feeder-free condition in the defined hESC media containing 0, 4, 10, 20, 30, or 50 ng/ml bFGF were performed. The growth rate (FIG. 1b) and the percentage of undifferentiated colonies (FIG. 1c) in response to bFGF doses were compared to those of hESCs maintained in MEF-conditioned media (MEF-CM) (the latter also actually “spiked” with an additional 10 ng/ml bFGF). […] To further affirm the role of bFGF on hESC undifferentiated growth, hESCs carrying a reporter gene (enhanced green fluorescence protein [EGFP]) under control of Oct-4 promoter were generated (via lentiviral-mediated transduction).

bFGF: basic fibroblast growth factor, growth factor added to the defined hESC media
hESC colonies with completely differentiated morphology that ceased expressing Oct-4 ([1]; absence of bFGF, laminin/collagen, first passage): approximately 80% | percentage of undifferentiated hESC colonies at higher dosages ([1]; bFGF 30 and 50 ng/ml versus 20 ng/ml, 7 days): slightly decreased percentages of undifferentiated hESC colonies | hESC colonies highly compact and undifferentiated (morphology, Oct-4, SSEA-4, Tra-1-60, Tra-1-81 expression) ([1]; defined hESC media containing 20 ng/ml bFGF, laminin/collagen-coated plates, each passage, day 7): Over 80% | differentiation rate of hESCs ([1]; low concentration of bFGF (4 ng/ml), feeder-free, defined media): high differentiation rates | bFGF concentration maintaining the optimal proportion of undifferentiated hESCs, comparable to MEF-CM ([1]; tested 0, 4, 10, 20, 30, 50 ng/ml, 7 days): 20 ng/mL | size of hESC colonies on HFFs ([2]; bFGF increased to 20 ng/ml from 4 ng/ml): significantly larger | number of passages undifferentiated hESCs maintained on HFF feeder layers ([2]; medium with bFGF 20 ng/ml): more than 50 passages | time undifferentiated hESCs maintained on HFF feeder layers ([2]; medium with bFGF 20 ng/ml): over 12 months | undifferentiated hESC colonies on HFF feeders on every passage ([2]; medium with bFGF 20 ng/ml, 20% knockout Serum Replacement): less than 80% | large differentiated cells displaying high levels of p38 phosphorylation (p38 MAPK; absence of bFGF): about 5% | p38 MAPK form in undifferentiated hESCs by immunocytochemistry (p38 MAPK; defined media containing 20 ng/ml bFGF): unphosphorylated inactive form of p38 MAPK was present robustly | phosphorylation levels of p38 MAPK by Western blot (p38 MAPK; increased bFGF concentrations): no changes | growth rate of hESCs ([3]; bFGF 10 to 50 ng/ml, compared with MEF-CM): growth rate comparable to that maintained in MEF-CM | growth of hESCs ([3]; low concentration of bFGF (4 ng/ml), defined media): significantly slow growth
